Tested on: patients with advanced solid tumors
Assay: First-in-human phase 1 dose-escalation study: safety, DLTs, adverse events
Assay type: in vivo
Description: This multicenter first-in-human dose-escalation phase 1 study (clinicaltrials.gov identifier: NCT03272256) was designed to determine the MTD or RP2D and to evaluate the safety and tolerability of IM156. Secondary endpoints included PK characteristics, efficacy assessment (objective response rate [ORR], disease control rate [DCR], duration of response [DoR] and progression-free survival [PFS]). Furthermore, exploratory objectives included identification and profiling of IM156 metabolites, evaluations of exploratory PD markers of IM156, and evaluations of any potential relationship between putative biomarkers and safety/efficacy parameters of IM156. The study was conducted in accordance with Good Clinical Practice, the International Council for Harmonisation, and guidelines governing clinical study conduct and the ethical principles originating from the Declaration of Helsinki. The study was approved by each Institutional Review Board and patients provided written informed consent. Patients were enrolled at three sites in South Korea.
The initial dose and schedule of IM156 was chosen based on animal toxicology studies. […] IM156 was administered in the fasted state, with no food for at least 2 h before and 1 h after dosing.
Three DLT-evaluable patients were enrolled at each dose level. If there were no DLTs or other prohibitive adverse events (AEs), the Safety Committee was allowed to recommend escalation to the next highest dose level. If 1 DLT occurred in the first 3 DLT-evaluable patients, enrollment in that cohort was expanded to an additional 3 DLT-evaluable patients; if ≥ 2 DLTs were reported in a cohort, that dose was considered above the MTD.
Safety was assessed through vital signs, weight, laboratory assessments, physical examinations, electrocardiogram, and reporting of AEs as graded by the National Cancer Institute’s Common Terminology Criteria for Adverse Events v4.03 (NCI-CTCAE).
DLTs were defined as the following AEs if they were attributed as related to IM156: asymptomatic grade 4 neutropenia lasting for ≥ 5 days; febrile neutropenia, regardless of grade; grade 4 thrombocytopenia or grade 3 thrombocytopenia with bleeding; any grade ≥ 3 non-hematologic AE (except grade 3 hypertension and grade 3 nausea, vomiting or diarrhea for which proper measures for prevention and treatment were not implemented, and alopecia); blood lactate levels > 5 mmol; grade ≥ 2 AE prohibiting dosing of IM156 for ≥ 21 continuous days except for alterations in serum calcium or phosphorus levels. The safety analysis includes all patients who received at least one dose of study drug.
The safety population was defined as all patients who received at least one dose of IM156. The PK population was not defined in the protocol but included all patients with sufficient PK data to perform adequate PK modeling. The efficacy population included all patients who underwent at least one tumor imaging assessment while receiving IM156. Safety was assessed using descriptive statistics (e.g., DLTs, AEs, laboratory tests, physical examination, 12-lead ECG). The incidence and number of events were reported for the DLTs observed in Cycle 1 per dose group. […] Adverse events and TRAEs were standardized with the System Organ Class and the Preferred Term using the Medical Dictionary for Regulatory Activities v23.0. In addition, TEAEs, serious adverse events (SAEs), TEAE severity, and TEAEs leading to withdrawal were presented by dose group. Efficacy data were to be presented by Waterfall and Swim Lane plots. Time to event endpoints (e.g., DoR, PFS) were determined using Kaplan–Meier estimations with the median value for each endpoint summarized.

[1] = DL1 100 mg orally every other day (n=3)
[2] = DL2 200 mg orally every other day (n=3)

NC(=Nc1ccc(OC(F)(F)F)cc1)N=C(N)N1CCCC1 [IM156]
TEAE Psychiatric disorders grade 1 [1]: 0
TEAE Psychiatric disorders grade 2 [1]: 0
TEAE Psychiatric disorders grade 3 [1]: 0
TEAE Psychiatric disorders grade 4 [1]: 0
TEAE Purpura grade 1 [1]: 0
TEAE Purpura grade 2 [1]: 0
TEAE Purpura grade 3 [1]: 0
TEAE Purpura grade 4 [1]: 0
TEAE Urinary retention grade 1 [1]: 0
TEAE Urinary retention grade 2 [1]: 0
TEAE Urinary retention grade 3 [1]: 0
TEAE Urinary retention grade 4 [1]: 0
TEAE Urinary tract disorder grade 1 [1]: 0
TEAE Urinary tract disorder grade 2 [1]: 0
TEAE Urinary tract disorder grade 3 [1]: 0
TEAE Urinary tract disorder grade 4 [1]: 0
TEAE Abdominal pain, grade 2 (DL2 200 mg QOD (n=3)): 1
TEAE Alanine aminotransferase increased, grade 1 (DL2 200 mg QOD (n=3)): 1
TEAE Asthenia, grade 1 (DL2 200 mg QOD (n=3)): 1
TEAE Cough, grade 1 (DL2 200 mg QOD (n=3)): 1
TEAE Diarrhoea, grade 2 (DL2 200 mg QOD (n=3)): 1
TEAE Ileus, grade 3 (DL2 200 mg QOD (n=3)): 1
TEAE Nausea, grade 1 (DL2 200 mg QOD (n=3)): 1
TEAE Pleural effusion, grade 2 (DL2 200 mg QOD (n=3)): 1
TEAE Pyrexia, grade 1 (DL2 200 mg QOD (n=3)): 1
TEAE Vomiting, grade 1 (DL2 200 mg QOD (n=3)): 2
TRAE Abdominal Pain, > G3 (patients) (DL2 200 mg QOD oral, N = 3): 0
TRAE Abdominal Pain, All grades (patients) (DL2 200 mg QOD oral, N = 3): 0
TRAE Blood Lactic Acid increased, > G3 (patients) (DL2 200 mg QOD oral, N = 3): 0
TRAE Blood Lactic Acid increased, All grades (patients) (DL2 200 mg QOD oral, N = 3): 0
TRAE Constipation, > G3 (patients) (DL2 200 mg QOD oral, N = 3): 0
TRAE Constipation, All grades (patients) (DL2 200 mg QOD oral, N = 3): 0
TRAE Decreased appetite, > G3 (patients) (DL2 200 mg QOD oral, N = 3): 0
TRAE Decreased appetite, All grades (patients) (DL2 200 mg QOD oral, N = 3): 1
TRAE Diarrhoea, > G3 (patients) (DL2 200 mg QOD oral, N = 3): 0
TRAE Diarrhoea, All grades (patients) (DL2 200 mg QOD oral, N = 3): 1
TRAE Fatigue, > G3 (patients) (DL2 200 mg QOD oral, N = 3): 0
TRAE Fatigue, All grades (patients) (DL2 200 mg QOD oral, N = 3): 0
TRAE Insomnia, > G3 (patients) (DL2 200 mg QOD oral, N = 3): 0
TRAE Insomnia, All grades (patients) (DL2 200 mg QOD oral, N = 3): 1
TRAE Nausea, > G3 (patients) (DL2 200 mg QOD oral, N = 3): 0
TRAE Nausea, All grades (patients) (DL2 200 mg QOD oral, N = 3): 1
TRAE Vomiting, > G3 (patients) (DL2 200 mg QOD oral, N = 3): 0
TRAE Vomiting, All grades (patients) (DL2 200 mg QOD oral, N = 3): 2
TEAE Adrenal insufficiency grade 1 [2]: 0
TEAE Adrenal insufficiency grade 2 [2]: 0
TEAE Adrenal insufficiency grade 3 [2]: 0
TEAE Adrenal insufficiency grade 4 [2]: 0
TEAE Anaemia grade 1 [2]: 0
TEAE Anaemia grade 2 [2]: 1
TEAE Anaemia grade 3 [2]: 0
TEAE Anaemia grade 4 [2]: 0
TEAE Appendicitis perforated grade 1 [2]: 0
TEAE Appendicitis perforated grade 2 [2]: 0
TEAE Appendicitis perforated grade 3 [2]: 0
TEAE Appendicitis perforated grade 4 [2]: 0
TEAE Back pain grade 1 [2]: 0
TEAE Back pain grade 2 [2]: 0
TEAE Back pain grade 3 [2]: 0
TEAE Back pain grade 4 [2]: 0
TEAE Cystitis grade 1 [2]: 0
TEAE Cystitis grade 2 [2]: 0
TEAE Cystitis grade 3 [2]: 0
TEAE Cystitis grade 4 [2]: 0
TEAE Dry skin grade 1 [2]: 0
TEAE Dry skin grade 2 [2]: 0
TEAE Dry skin grade 3 [2]: 0
TEAE Dry skin grade 4 [2]: 0
TEAE Flank pain grade 1 [2]: 0
TEAE Flank pain grade 2 [2]: 1
TEAE Flank pain grade 3 [2]: 0
TEAE Flank pain grade 4 [2]: 0
TEAE Hypertension grade 1 [2]: 0
TEAE Hypertension grade 2 [2]: 0
TEAE Hypertension grade 3 [2]: 0
TEAE Hypertension grade 4 [2]: 0
TEAE Hypotension grade 1 [2]: 0
TEAE Hypotension grade 2 [2]: 0
TEAE Hypotension grade 3 [2]: 0
TEAE Hypotension grade 4 [2]: 0
TEAE Insomnia grade 1 [2]: 0
TEAE Insomnia grade 2 [2]: 1
TEAE Insomnia grade 3 [2]: 0
TEAE Insomnia grade 4 [2]: 0
TEAE Pain in extremity grade 1 [2]: 0
TEAE Pain in extremity grade 2 [2]: 0
TEAE Pain in extremity grade 3 [2]: 0
TEAE Pain in extremity grade 4 [2]: 0
TEAE Pruritus grade 1 [2]: 0
TEAE Pruritus grade 2 [2]: 0
TEAE Pruritus grade 3 [2]: 0
TEAE Pruritus grade 4 [2]: 0
TEAE Psychiatric disorders grade 1 [2]: 0
TEAE Psychiatric disorders grade 2 [2]: 1
TEAE Psychiatric disorders grade 3 [2]: 0
TEAE Psychiatric disorders grade 4 [2]: 0
TEAE Purpura grade 1 [2]: 0
TEAE Purpura grade 2 [2]: 0
TEAE Purpura grade 3 [2]: 0
TEAE Purpura grade 4 [2]: 0
TEAE Urinary retention grade 1 [2]: 0
TEAE Urinary retention grade 2 [2]: 0
TEAE Urinary retention grade 3 [2]: 0
TEAE Urinary retention grade 4 [2]: 0
TEAE Urinary tract disorder grade 1 [2]: 0
TEAE Urinary tract disorder grade 2 [2]: 0
TEAE Urinary tract disorder grade 3 [2]: 0
TEAE Urinary tract disorder grade 4 [2]: 0
TEAE Cough, grade 1 (DL3 400 mg QOD (n=3)): 1
TEAE Headache, grade 2 (DL3 400 mg QOD (n=3)): 1
TEAE Nausea, grade 1 (DL3 400 mg QOD (n=3)): 1
TEAE Nausea, grade 2 (DL3 400 mg QOD (n=3)): 2
TEAE Neutrophil count decreased, grade 4 (DL3 400 mg QOD (n=3)): 1
TEAE Peripheral sensory neuropathy, grade 1 (DL3 400 mg QOD (n=3)): 1
TEAE Vomiting, grade 1 (DL3 400 mg QOD (n=3)): 2
TRAE Abdominal Pain, > G3 (patients) (DL3 400 mg QOD oral, N = 3): 0
TRAE Abdominal Pain, All grades (patients) (DL3 400 mg QOD oral, N = 3): 0
